The first assay concerns the target T1, Axl (Homo sapiens, UniProt P30530).
T1 construct: endogenous in cells; host or cells: HeLa cells
T1 sequence (P30530 26-894): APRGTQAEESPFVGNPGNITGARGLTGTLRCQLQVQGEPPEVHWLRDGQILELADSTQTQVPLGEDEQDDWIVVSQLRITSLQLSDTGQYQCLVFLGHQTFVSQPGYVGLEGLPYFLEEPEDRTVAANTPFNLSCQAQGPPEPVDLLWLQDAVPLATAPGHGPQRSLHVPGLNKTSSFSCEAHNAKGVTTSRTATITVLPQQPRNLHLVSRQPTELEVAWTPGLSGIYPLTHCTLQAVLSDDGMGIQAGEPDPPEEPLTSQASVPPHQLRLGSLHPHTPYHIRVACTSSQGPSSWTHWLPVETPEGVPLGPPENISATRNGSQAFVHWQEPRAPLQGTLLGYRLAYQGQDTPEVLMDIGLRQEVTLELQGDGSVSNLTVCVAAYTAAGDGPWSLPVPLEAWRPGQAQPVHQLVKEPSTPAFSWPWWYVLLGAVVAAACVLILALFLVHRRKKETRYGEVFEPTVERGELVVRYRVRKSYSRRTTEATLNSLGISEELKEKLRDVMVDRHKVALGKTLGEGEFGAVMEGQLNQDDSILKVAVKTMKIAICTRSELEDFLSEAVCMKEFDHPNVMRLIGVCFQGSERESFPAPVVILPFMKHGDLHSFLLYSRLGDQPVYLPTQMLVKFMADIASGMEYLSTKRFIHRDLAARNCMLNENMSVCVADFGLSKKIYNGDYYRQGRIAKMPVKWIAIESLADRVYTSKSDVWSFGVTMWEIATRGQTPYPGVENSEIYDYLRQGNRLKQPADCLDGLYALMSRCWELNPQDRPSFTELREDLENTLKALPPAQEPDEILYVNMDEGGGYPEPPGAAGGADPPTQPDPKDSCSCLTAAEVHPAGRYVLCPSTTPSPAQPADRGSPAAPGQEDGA
The experiment in a line: Phospho-Akt In-Cell Western Assay (inhibition of Axl activity after Axl-antibody cross-linking). The note with it: Hela cells, phospho-Akt chemiluminescence normalized to relative cell number; compounds of formula (Ia), Table 1; read-out: IC50. It is filed as cell-based. The procedure, abridged:
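Phospho-Akt was detected in formaldehyde-fixed cells by in-cell immunostaining with HRP chemiluminescence. Before fixation, HeLa cells kept 24 h in low-serum medium containing 500 ng/mL Axl/Fc received compound for 1 h at 37 °C, followed by 5-min Axl activation through antibody clustering.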
With `CN1CCN(c2ccc(Nc3nc(N)n(-c4cc5c(nn4)-c4ccccc4CCC5)n3)cc2)CC1` [Compound 34, 1-(6,7-dihydro-5H-benzo[6,7]cyclohepta[1,2-c]pyridazin-3-yl)-N^3-(4-(4-methylpiperazin-1-yl)phenyl)-1H-1,2,4-triazole-3,5-diamine], the half-maximal inhibitory concentration (IC50) was less than 1 µM.

As for `Nc1nc(Nc2ccc(CC3C(=O)Nc4ccc(F)cc43)cc2)nn1-c1cc2c(nn1)-c1ccccc1CCC2` (stereo not shown) [Compound 91, 1-(6,7-dihydro-5H-benzo[6,7]cyclohepta[1,2-c]pyridazin-3-yl)-N^3-(4-((5-fluoroindolin-2-on-3-yl)methyl)phenyl)-1H-1,2,4-triazole-3,5-diamine], the 50% inhibitory concentration (IC50) was more than 20 µM.

With `Nc1nc(Nc2ccc(N3CCC(N4CCCC4)CC3)c(F)c2)nn1-c1cc2c(nn1)-c1cc(F)ccc1CCC2` [Compound 53, 1-(6,7-dihydro-5H-10-fluorobenzo[6,7]cyclo-hepta[1,2-c]pyridazin-3-yl)-N^3-(3-fluoro-4-(4-(pyrrolidin-1-yl)piperidin-1-yl)phenyl)-1H-1,2,4-triazole-3,5-diamine], the IC50 is less than 1 µM.

For `Nc1nc(Nc2ccc(CN3CCN(C4CCCC4)CC3)cc2)nn1-c1cc2c(nn1)-c1ccccc1CCC2` [Compound 104, 1-(6,7-dihydro-5H-benzo[6,7]cyclohepta[1,2-c]pyridazin-3-yl)-N^3-(4-((4-cyclopentylpiperazinyl)-methyl)phenyl)-1H-1,2,4-triazole-3,5-diamine], the IC50 was less than 1 µM.

As for `Nc1nc(Nc2ccc(N3CCCCC(N4CCCC4)C3)c(F)c2)nn1-c1cc2c(nn1)-c1ccccc1CCC2` (stereo not shown) [Compound 69, 1-(6,7-dihydro-5H-benzo[6,7]cyclohepta[1,2-c]pyridazin-3-yl)-N^3-(3-fluoro-4-(3-pyrrolidin-1-yl-azepan-1-yl)phenyl)-1H-1,2,4-triazole-3,5-diamine], the concentration for half-maximal inhibition (IC50) is less than 1 µM.

For `CN(C1CCc2ccc(Nc3nc(N)n(-c4cc5c(nn4)-c4ccccc4CCC5)n3)cc2CC1)C1CC2CCC1C2` (stereo not shown) [Compound 24, 1-(6,7-dihydro-5H-benzo[6,7]cyclohepta[1,2-c]pyridazin-3-yl)-N^3-(7-((bicyclo[2.2.1]heptan-2-yl)(methyl)amino)-6,7,8,9-tetrahydro-5H-benzo[7]annulene-2-yl)-1H-1,2,4-triazole-3,5-diamine], the IC50 is 1 to 10 µM.

The assay is the same for the next values; noted with them: Hela cells, phospho-Akt chemiluminescence normalized to relative cell number; compounds of formula (Ib), Table 2; read-out: IC50.
Take `Nc1nc(Nc2ccc3c(c2)CNCC3)n(-c2cc3c(nn2)-c2ccccc2CCC3)n1` [Compound 243, 1-(6,7-dihydro-5H-benzo[6,7]cyclohepta[1,2-c]pyridazin-3-yl)-N^5-(1,2,3,4-tetrahydroisoquinolin-7-yl)-1H-1,2,4-triazole-3,5-diamine]: the half-maximal inhibitory concentration (IC50) fell in the range of 1 to 10 µM.

In the case of `CN1CCC2(CCN(c3ccc(Nc4nc(N)nn4-c4cc5c(nn4)-c4ccccc4CCC5)cc3F)C2)C1` (stereo not shown) [Compound 169, 1-(6,7-dihydro-5H-benzo[6,7]cyclohepta[1,2-c]pyridazin-3-yl)-N^5-(3-fluoro-4-(7-methyl-2,7-diazaspiro[4.4]nonan-2-yl)phenyl)-1H-1,2,4-triazole-3,5-diamine], the IC50 was in the range of 1 to 10 µM.

With `Nc1nc(Nc2ccc(N3CCC(N4CCCC4)CC3)cc2)n(-c2cc3c(nn2)-c2ccccc2SCC3)n1` [Compound 172, 1-(6,7-dihydro-5H-benzo[2,3]thiepino[4,5-c]pyridazin-3-yl)-N^5-(4-(4-pyrrolidin-1-ylpiperidinyl)phenyl)-1H-1,2,4-triazole-3,5-diamine], the IC50 was more than 20 µM.

With `Nc1nc(Nc2ccc(N3CCC(N4CCCC4)C3)c(F)c2)n(-c2cc3c(nn2)-c2ccccc2CCC3)n1` (stereo not shown) [Compound 174, 1-(6,7-dihydro-5H-benzo[6,7]cyclohepta[1,2-c]pyridazin-3-yl)-N^5-(3-fluoro-(4-(3-pyrrolidin-1-yl)pyrrolidin-1-yl)phenyl)-1H-1,2,4-triazole-3,5-diamine], the concentration for half-maximal inhibition (IC50) lay within 1 to 10 µM.

Staying with this assay, now noted: inhibition of Axl activity; Table 1, compounds of formula (Ia); read-out: IC50.
As for `Nc1nc(Nc2ccc(N3CCC(N4CCCC4)CC3)c(F)c2)nn1-c1cc2c(nn1)CCCc1ccccc1-2` [Compound 178, 1-(6,7-dihydro-5H-benzo[6,7]cyclohepta[4,5-c]pyridazin-2-yl)-N^3-(3-fluoro-4-(4-pyrrolidin-1-ylpiperidin-1-yl)phenyl)-1H-1,2,4-triazole-3,5-diamine], the IC50 is less than 1 µM.

With `Nc1nc(Nc2ccc(C(=O)N3CCC(N4CCCCC4)CC3)nc2)nn1-c1cc2c(nn1)-c1ccccc1CCC2` [Compound 149, 1-(6,7-dihydro-5H-benzo[6,7]cyclohepta[1,2-c]pyridazin-3-yl)-N^3-(6-((4-piperidin-1-ylpiperidin-1-yl)carbonyl)pyridin-3-yl)-1H-1,2,4-triazole-3,5-diamine], the IC50 is 1 to 10 µM.

`Nc1nc(Nc2ccc(C=CCN3CCN(C4CCCC4)CC3)cc2)nn1-c1cc2c(nn1)-c1ccccc1CCC2` [Compound 206, 1-(6,7-dihydro-5H-benzo[6,7]cyclohepta[1,2-c]pyridazin-3-yl)-N^3-(4-(4-cyclopentylpiperazin-1-ylprop-1-enyl)phenyl)-1H-1,2,4-triazole-3,5-diamine]: the IC50 is less than 1 µM.

With `Nc1nc(Nc2ccc(N3CCC(N4CCCC4)CC3)c(F)c2)nn1-c1cc(-c2ccccc2)c2c(n1)-c1ccccc1CCC2` [Compound 238, 1-(4-phenyl-6,7-dihydro-5H-benzo[6,7]cyclohepta[1,2-b]pyridin-2-yl)-N^3-(3-fluoro-4-(4-pyrrolidin-1-ylpiperidin-1-yl)phenyl)-1H-1,2,4-triazole-3,5-diamine], the IC50 fell in the range of 1 to 10 µM.

On to `CCN(CC)C1CCN(c2ccc(Nc3nc(N)n(-c4cc5c(nn4)-c4ccccc4CCC5)n3)cn2)C1` (stereo not shown) [Compound 133, 1-(6,7-dihydro-5H-benzo[6,7]cyclohepta[1,2-c]pyridazin-3-yl)-N^3-(6-(3-diethylaminopyrrolidin-1-yl)pyridin-3-yl)-1H-1,2,4-triazole-3,5-diamine], for which the IC50 is less than 1 µM.

Take `CCN(CC)CCN(C)C1CCc2ccc(Nc3nc(N)n(-c4cc5c(nn4)-c4ccccc4CCC5)n3)cc2CC1` (stereo not shown) [Compound 231, 1-(6,7-dihydro-5H-benzo[6,7]cyclohepta[1,2-c]pyridazin-3-yl)-N^3-(7-(2-(diethylamino)ethyl)methyl-amino-6,7,8,9-tetrahydro-5H-benzo[7]annulene-2-yl)-1H-1,2,4-triazole-3,5-diamine]: the IC50 was less than 1 µM.

Turning to `COc1cc2ncnc(-n3nc(Nc4cnc5c(c4)CC4(CCC5)OCCO4)nc3N)c2cc1OC` [Compound 239, 1-(6,7-dimethoxy-quinazolin-4-yl)-N^3-(5,7,8,9-tetrahydrospiro[cyclohepta[b]pyridine-6,2′-[1,3]dioxolane]-3-yl)-1H-1,2,4-triazole-3,5-diamine], the IC50 is 1 to 10 µM.

With `CN1CCC(N2CCc3ccc(Nc4nc(N)n(-c5cc6c(nn5)-c5ccccc5CCC6)n4)cc3C2)CC1` [Compound 215, 1-(6,7-dihydro-5H-benzo[6,7]cyclohepta[1,2-c]pyridazin-3-yl)-N^3-(2-(1-methylpiperidin-4-yl)-1,2,3,4-tetrahydroisoquinolin-7-yl)-1H-1,2,4-triazole-3,5-diamine], the half-inhibitory concentration (IC50) is less than 1 µM.

Turning to `CN1CCN(c2ccc(Nc3nc(N)n(-c4cc(-c5ccccc5)c5c(n4)-c4ccccc4CCC5)n3)cc2)CC1` [Compound 193, 1-(4-phenyl-6,7-dihydro-5H-benzo[6,7]cyclohepta[1,2-b]pyridin-2-yl)-N^3-(4-(4-methylpiperazin-1-yl)phenyl)-1H-1,2,4-triazole-3,5-diamine], the IC50 lay in the range of 1 to 10 µM.

`Nc1nc(Nc2ccc(C3NCC4CNCC43)c(F)c2)nn1-c1cc2c(nn1)-c1ccccc1CCC2` (stereo not shown) [Compound 137, 1-(6,7-dihydro-5H-benzo[6,7]cyclohepta[1,2-c]pyridazin-3-yl)-N^3-(3-fluoro-4-(octahydropyrrolo[3,4-c]pyrrolyl)phenyl)-1H-1,2,4-triazole-3,5-diamine]: the concentration for half-maximal inhibition (IC50) is less than 1 µM.

Regarding `C[C@H]1CN(c2ccc(Nc3nc(N)n(-c4cc5c(nn4)-c4ccccc4CCC5)n3)cn2)CCN1CC1CC1` [Compound 202, 1-(6,7-dihydro-5H-benzo[6,7]cyclohepta[1,2-c]pyridazin-3-yl)-N^3-(2-(3-(S)-methyl-4-cyclopropylmethylpiperazin-1-yl)pyridine-5-yl)-1H-1,2,4-triazole-3,5-diamine], the IC50 is less than 1 µM.

On to `Nc1nc(Nc2ccc3c(c2)CCC(N2CC[C@H](F)C2)CC3)nn1-c1cc2c(nn1)-c1ccccc1CCC2` (stereo partly drawn) [Compound 217, 1-(6,7-dihydro-5H-benzo[6,7]cyclohepta[1,2-c]pyridazin-3-yl)-N^3-(7-(3-(S)-fluoropyrrolidin-1-yl)-6,7,8,9-tetrahydro-5H-benzo[7]annulene-2-yl)-1H-1,2,4-triazole-3,5-diamine], for which the half-inhibitory concentration (IC50) was less than 1 µM.

These data come from patent US7709482B2, “Polycyclic heteroaryl substituted triazoles useful as Axl inhibitors” (Rigel Pharmaceuticals, Inc., priority 2006, dated 2010).
